{
  "source": "patent US10857167B2",
  "about": "“Use of oligosaccharide compositions to enhance weight gain” (Children's Hospital Medical Center, priority 2015, dated 2020)",
  "test_system": "environmental enteropathy growth model",
  "experiment": "Environmental enteropathy growth model (control diet or regional-based diet)",
  "assay_type": "in vivo, mouse",
  "conditions": "2.5 g/L in drinking water from 4 weeks of age",
  "excerpt": "FIG. 41 is a scheme showing a 2′-FL experiment: Environmental Enteropathy. All dams were placed on Regional-based Diet when their pups were 10 days old. At weaning (3 weeks of age), pups were placed on either control diet (CD) or continued on regional-based diet (RBD), which is a malnutrition diet lacking nutrients. At 4 weeks of age, the pups were given either plain drinking water or 2-FL (2.5 g/L) in sipper sacs. Sipper sacs were changed and weighed every other day. Mice and food were weighed twice a week. Stool was collected at weaning, 6 weeks of age, and 8 weeks of age. Mice were sacrificed at 8 weeks of age. To further support the findings of the beneficial effect of 2′ FL supplementation on infant growth, another experiment as outlined in FIG. 41 was performed. All dams were placed on Regional-based Diet when their pups were 10 days old. At weaning (3 wks of age), pups were placed on either control diet (CD) or continued on regional-based diet (RBD), which is a malnutrition diet lacking nutrients. At 4 wks of age, the pups were given either plain drinking water or 2-FL (2.5 g/L) in sipper sacs. Sipper sacs were changed and weighed every other day. Mice and food were weighed twice a week. Stool was collected at weaning, 6 weeks of age, and 8 weeks of age. Mice were sacrificed at 8 weeks of age.",
  "data": [
    {"smiles": "C[C@@H]1O[C@@H](O[C@H]2[C@H](O[C@H]3[C@H](O)[C@@H](O)C(O)O[C@@H]3CO)O[C@H](CO)[C@H](O)[C@@H]2O)[C@@H](O)[C@H](O)[C@@H]1O", "note": "(some centres unmarked) [2′-FL, 2′-fucosyllactose]", "values": [
      {"measurement": "growth (weight change over time)", "setting": "control diet", "result": "increased growth"},
      {"measurement": "growth (weight change over time)", "setting": "regional based diet (malnutrition diet)", "result": "did not increase growth"}
    ]}
  ]
}
